Test results published in US4965280A, “Antifungal carbinols” (E. I. Du Pont de Nemours and Company, priority 1989, dated 1990).

Assays:
BLACK NIGHTSHAD = assay: Test E; format: in vivo, Solanum nigrum
CMN CHICKWEED = assay: Test E; format: in vivo, Stellaria media
CTCHWD BEDSTRAW = assay: Test E; format: in vivo, Galium aparine
SNTLS CHAMOMILE = assay: Test E; format: in vivo, Matricaria indora
LADY SMARTWEED = assay: Test E; format: in vivo, Polygonum persicaria; details: PREEMERGENCE 0500 GM/HA
Text: (§1) Seeds of the following crops and weeds are sown into 15 cm pots containing Sassafras sandy loam soil: wheat (Triticum aestivum cv. Park), barley (Hordeum vulgare cv. Bonanza), sugarbeet (Beta vulgaris cv. USH-11), rapeseed (Brassica napus cv. Jet Neuf), black nightshade (Solanum nigrum), chickweed (Stellaria media), lambsquarter (Chenopodium album), Galium aparine, knotweed (Polygonum aviculare), Kochia scoparia, Matricaria indora, redroot pigweed (Amaranthus retroflexus), smartweed (Polygonum persicaria), speedwell (Veronica persica), wild buckwheat (Polygonum convolvulus), wild mustard (Brassica spp.), wild radish (Raphanus raphanistrum), annual bluegrass (PO annua), annual ryegrass (Lolium multiflorum), blackgrass (Alopercurus mysuroides), green foxtail (Setaria viridis), and wild oats (Avena fatua). Compounds are formulated in a nonphytotoxic solvent and applied to the plants as a foliar spray or applied to the soil surface. Plants are treated at two stages: preemergence, or postemergence when the sugarbeets are at the 2-3 true leaf stage. Plants are grown in a temperature-controlled greenhouse for the duration of the test.
(§2) Weed control and crop injury are evaluated visually at 3-4 weeks after compound application, using a scale of 0 to 100%, where 0=no injury and 100=complete death of the plant. All plants are rated with respect to untreated plants (checks) grown in the greenhouse under identical conditions to the treated plants.

WILD RADISH = assay: Test E; format: in vivo, Raphanus raphanistrum
BLACKGRASS = assay: Test E; format: in vivo, Alopercurus mysuroides
Text: as §1, §2

JET RAPE = assay: Test E; format: in vivo, Brassica napus cv. Jet Neuf
BERMUDAGRASS = assay: Test F; format: in vivo, Cynodon dactylon
Text: Weed species were planted 3 or 4 per 15-cm diameter pot in Sassafras sandy loam (pH 6.8; 1% OM). Cotton was planted separately in the same sized pot. Postemergence plantings were made 12-16 days prior to treating so plants were in the 2- to 3-leaf stage (5-12 cm tall). Preemergence plantings were made the day before treating. Compounds were sprayed in a suitable non-phytotoxic solvent at 374 l/ha, then after 3 weeks of growth in a greenhouse, plant responses were visually rated on a percent scale where 0=no injury and 100=plant death.

C=C(c1ccc(F)cc1)C(O)(Cn1cncn1)c1ccc(F)cc1F (centres unmarked) [Example 4, 2-(2,4-Difluorophenyl)-3-(4-fluorophenyl)-1-(1H-1,2,4-triazol-1-yl)-3-buten-2-ol]
plant response (BLACK NIGHTSHAD; POSTEMERGENCE 0064 GM/HA): 10% | plant response (BLACK NIGHTSHAD; POSTEMERGENCE 0125 GM/HA): 30% | plant response (BLACK NIGHTSHAD; POSTEMERGENCE 0250 GM/HA): 70% | plant response (BLACK NIGHTSHAD; POSTEMERGENCE 0500 GM/HA): 90% | plant response (BLACK NIGHTSHAD; PREEMERGENCE 0500 GM/HA): 100% | plant response (CMN CHICKWEED; POSTEMERGENCE 0064 GM/HA): 0% | plant response (CMN CHICKWEED; POSTEMERGENCE 0125 GM/HA): 0% | plant response (CMN CHICKWEED; POSTEMERGENCE 0250 GM/HA): 0% | plant response (CMN CHICKWEED; POSTEMERGENCE 0500 GM/HA): 0% | plant response (CMN CHICKWEED; PREEMERGENCE 0500 GM/HA): 0% | plant response (CTCHWD BEDSTRAW; POSTEMERGENCE 0064 GM/HA): 20% | plant response (CTCHWD BEDSTRAW; POSTEMERGENCE 0125 GM/HA): 20% | plant response (CTCHWD BEDSTRAW; POSTEMERGENCE 0250 GM/HA): 80% | plant response (CTCHWD BEDSTRAW; POSTEMERGENCE 0500 GM/HA): 100% | plant response (CTCHWD BEDSTRAW; PREEMERGENCE 0500 GM/HA): 100% | plant response (SNTLS CHAMOMILE; POSTEMERGENCE 0064 GM/HA): 30% | plant response (SNTLS CHAMOMILE; POSTEMERGENCE 0125 GM/HA): 50% | plant response (SNTLS CHAMOMILE; POSTEMERGENCE 0250 GM/HA): 70% | plant response (SNTLS CHAMOMILE; POSTEMERGENCE 0500 GM/HA): 85% | plant response (SNTLS CHAMOMILE; PREEMERGENCE 0500 GM/HA): 100% | plant response (LADY SMARTWEED): 100% | plant response (WILD RADISH; POSTEMERGENCE 0064 GM/HA): 20% | plant response (WILD RADISH; POSTEMERGENCE 0125 GM/HA): 60% | plant response (WILD RADISH; POSTEMERGENCE 0250 GM/HA): 80% | plant response (WILD RADISH; POSTEMERGENCE 0500 GM/HA): 90% | plant response (WILD RADISH; PREEMERGENCE 0500 GM/HA): 50% | plant response (BLACKGRASS; POSTEMERGENCE 0064 GM/HA): 0% | plant response (BLACKGRASS; POSTEMERGENCE 0125 GM/HA): 20% | plant response (BLACKGRASS; POSTEMERGENCE 0250 GM/HA): 20% | plant response (BLACKGRASS; POSTEMERGENCE 0500 GM/HA): 50% | plant response (BLACKGRASS; PREEMERGENCE 0500 GM/HA): 90% | plant response (JET RAPE; POSTEMERGENCE 0064 GM/HA): 0% | plant response (JET RAPE; POSTEMERGENCE 0125 GM/HA): 20% | plant response (JET RAPE; POSTEMERGENCE 0250 GM/HA): 20% | plant response (JET RAPE; POSTEMERGENCE 0500 GM/HA): 30% | plant response (JET RAPE; PREEMERGENCE 0500 GM/HA): 40% | plant response (BERMUDAGRASS; PREEMERGENCE 0032 GM/HA): 0% | plant response (BERMUDAGRASS; PREEMERGENCE 0064 GM/HA): 20% | plant response (BERMUDAGRASS; PREEMERGENCE 0125 GM/HA): 95% | plant response (BERMUDAGRASS; PREEMERGENCE 0250 GM/HA): 100% | plant response (BERMUDAGRASS; PREEMERGENCE 0500 GM/HA): 100%
